Test results from patent US6462193B1, “Hydroxyazepanes as inhibitors of glycosidase and HIV protease” (The Scripps Research Institute, priority 1999, dated 2002).
Entries after “also recorded” stand apart in the source; their conditions may differ. Read-outs that look alike come from different tables or passages of the source.

Legend:
glycosidases = experiment: Glycosidase inhibition analysis, panel of glycosidases; type: biochemical
Protocol: (§1) Inhibition analyses were performed at 37° C. in 0.1 M HEPES buffer, pH=6.8, except for α-fucosidase (assayed at 37° C. in 50 mM sodium acetate buffer, pH 6.0). The amount of enzyme added in each assay was 0.05 units (0.1 units for β-galactosidase and α-fucosidase). […] Data were collected and fitted to a Michaelis-Menten curve by using the program HyperCleland for enzyme kinetics analysis (Cleland, W. W. Methods Enzymol. 1979, 63, 103).

HIV protease = biological target: T1, HIV protease (Human immunodeficiency virus type 1 group M subtype B, UniProt P03369); type: biochemical, HIV-1
T1 construct: a backbone engineered HIV-1 protease was prepared by total synthesis; made in house; host or cells: total chemical synthesis (no expression host)
Protocol: For determination of IC50 values for HIV protease, a backbone engineered HIV-1 protease was prepared by total synthesis (Schnolzer et al. Science 1992, 256, 221) 450 nM Final concentration of the protease was added to a solution (152 μL final volume) containing tetrahydroxyazepane (inhibitor), 28 μM fluorogenic peptide substrate (Abz-Thr-Ile-Phe-(p-NO2)-Gln-Arg-NH2) (Tith et al. Int. J. Peptide Protein Res. 1990, 36, 544; Slee, et al. J. Am. Chem. Soc. 1995, 117, 11867) and 1.8% dimethyl sulfoxide in assay buffer: 100 mM MES buffer containing 0.5 mg/mL BSA (bovine serum album) at pH 5.5. A Km of 37±8 μM was reported for the synthetic HIV protease against the above fluorogenic substrate. The solution was mixed and incubated over 5 minutes at 37° C. during which time the rate of substrate cleavage was monitored by continuously recording the change in fluorescence of the assay solution. An excitation filter of 325 nm and an emission filter of 420 nm were used. For each inhibitor concentration, three measurements were carried out.

[1] = biological target: β-N-acetylglucosaminidase; settings: literature value (Wong et al. 1995); read-out: Ki as inhibitor of β-N-acetylglucosaminidase; cited from earlier work
FIV protease = biological target: T2, FIV protease (Feline immunodeficiency virus, UniProt P16088); experiment: FIV protease inhibition, fluorogenic peptide substrate; type: biochemical
T2 construct: enzymatic activity of recombinantly derived FIV protease; made in house
Protocol: The inhibitory effects of compounds 60a, 60b, 64a, 64b, 65a, and 65b on the enzymatic activity of recombinantly derived FIV protease (Slee et al. J. Am. Chem. Soc. 1995, 117, 11867) were studied using a fluorogenic assay based on the enzymatic cleavage of a novel peptide based substrate [Arg-Ala-Leu-Thr-Lys(aminobenzyl)-[…]. Inhibition studies were carried out at a single substrate concentration (20 μM) in a 50 mM sodium citrate/100 mM sodium phosphate buffer (pH 5.3) containing 2% DMSO and 1M sodium chloride. The same wavelengths were used for detections. […] IC50 values were determined by least squares analysis of Dixon Plots (Dixon, M. J. Biochem. 1953, 55, 170).

β-galactosidase [2] = settings: read-out: Ki as inhibitor of β-galactosidase; literature value (Bernotas et al. 1987); cited from earlier work
[3] = biological target: β-N-acetylglucosaminidase; experiment: Glycosidase inhibition analysis, β-N-acetylglucosaminidase; type: biochemical; settings: read-out: Ki as inhibitor of β-N-acetylglucosaminidase
Protocol: as §1

β-galactosidase [4] = experiment: Glycosidase inhibition analysis, β-galactosidase; type: biochemical; settings: read-out: Ki as inhibitor of β-galactosidase
Protocol: as §1

α-fucosidase = biological target: T3, α-fucosidase (Bos taurus, UniProt Q2KIM0); settings: literature value (Fleet et al. 1985); read-out: Ki as inhibitor of α-fucosidase; cited from earlier work
T3 sequence (Q2KIM0 23-468): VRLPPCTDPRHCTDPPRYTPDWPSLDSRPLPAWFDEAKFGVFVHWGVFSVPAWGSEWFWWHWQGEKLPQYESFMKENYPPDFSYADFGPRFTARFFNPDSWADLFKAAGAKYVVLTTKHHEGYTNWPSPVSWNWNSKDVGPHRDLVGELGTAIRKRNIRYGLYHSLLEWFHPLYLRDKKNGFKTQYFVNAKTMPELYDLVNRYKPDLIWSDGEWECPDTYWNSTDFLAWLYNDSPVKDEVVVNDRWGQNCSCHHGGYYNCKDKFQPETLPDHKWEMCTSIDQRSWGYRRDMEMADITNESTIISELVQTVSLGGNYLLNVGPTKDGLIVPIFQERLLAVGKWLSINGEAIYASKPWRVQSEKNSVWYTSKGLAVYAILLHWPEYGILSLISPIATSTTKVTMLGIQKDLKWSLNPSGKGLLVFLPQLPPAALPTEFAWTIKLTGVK

| SMILES | inhibition of the glycosidases (in words) (glycosidases) | inhibition of the HIV protease (in words) (HIV protease) | further results |
| --- | --- | --- | --- |
| O[C@H]1[C@H](O)[C@@H](O)CN(Cc2ccccc2)C[C@@H]1O [Compound 8, (3S,4R,5R,6S)-N-Benzyl-3,4,5,6-tetrahydroxyazepane] | does not improve inhibition activity except in the case of α-fucosidase | not inhibitors |  |
| CC(=O)N1C[C@H](O)[C@@H](O)[C@H](O)[C@H]1CO [1-deoxy-N-acetylglucojirimycin] |  |  | Ki [1]: 9.8 µM |
| O[C@@H]1[C@@H](O)[C@@H](OCc2cc(F)cc(F)c2)CNC[C@@H]1OCc1cc(F)cc(F)c1 [Compound 60b, (3S,4R,5R,6S)-3,6-di-O-(3′,5′-difluorobenzyl)-3,4,5,6-tetrahydroxyazepane] | not inhibitors | inhibit | IC50 against FIV protease (FIV protease): inceased compared to their inhibitory activity to the HIV protease; inhibition of FIV protease (in words) (FIV protease): active; Ki (HIV protease): ~350 µM |
| C[N+]1([O-])C[C@H](OCc2cccc(F)c2)[C@H](O)[C@@H](O)[C@@H](OCc2cccc(F)c2)C1 (stereo partly drawn) [Compound 65a, (3S,4R,5R,6S)-3,6-di-O-(3′-Fluorobenzyl)-N-methyl-3,4,5,6-tetrahydroxyazepane N-oxide] | not inhibitors | inhibit |  |
| CO[C@@H]1CN[C@H](CO)[C@@H](O)[C@H]1O [Compound 28, 2-O-methyl-1-deoxy-D-mannojirimycin] | None of these two azasugars exhibited significant inhibition |  |  |
| OC[C@H]1NC[C@H](O)[C@@H](O)[C@H]1O [1-deoxygalactojirimycin] |  |  | Ki (β-galactosidase [2]): > 1000 µM |
| OC1CNCC(O)C(O)C1O [Compound 3, (3R,4R,5R,6R)-tetrahydroxyazepane] |  | not inhibitors; also recorded: did not show inhibitory activities | Ki [3]: 4.6 µM |
| CN1C[C@H](OCc2cc(F)cc(F)c2)[C@H](O)[C@@H](O)[C@@H](OCc2cc(F)cc(F)c2)C1 [Compound 64b, (3S,4R,5R,6S)-3,6-di-O-(3′,5′-difluorobenzyl)-N-methyl-3,4,5,6-tetrahydroxyazepane] | not inhibitors | inhibit |  |
| O[C@H]1[C@H](O)[C@H](O)CN(Cc2ccccc2)C[C@H]1O [Compound 7, (3R,4R,5R,6R)-N-Benzyl-3,4,5,6-tetrahydroxyazepane] | does not improve inhibition activity except in the case of α-fucosidase | not inhibitors |  |
| CN1C[C@H](OCc2cccc(F)c2)[C@H](O)[C@@H](O)[C@@H](OCc2cccc(F)c2)C1 [Compound 64a, (3S,4R,5R,6S)-3,6-di-O-(3′-Fluorobenzyl)-N-methyl-3,4,5,6-tetrahydroxyazepane] | not inhibitors | inhibit |  |
| C[N+]1([O-])C[C@H](OCc2cc(F)cc(F)c2)[C@H](O)[C@@H](O)[C@@H](OCc2cc(F)cc(F)c2)C1 (stereo partly drawn) [Compound 65b, (3S,4R,5R,6S)-3,6-di-O-(3′,5′-difluorobenzyl)-N-methyl-3,4,5,6-tetrahydroxyazepane N-oxide] | not inhibitors | inhibit |  |
| CO[C@H]1CN[C@@H](CO)[C@H](O)[C@@H]1O [Compound 29, 2-O-methyl-1-deoxy-L-mannojirimycin] | None of these two azasugars exhibited significant inhibition |  |  |
| O[C@H]1[C@H](O)[C@@H](O)CNC[C@@H]1O [Compound 6, (3S,4R,5R,6S)-3,4,5,6-Tetrahydroxyazepane] | inhibits all glycosidases | not inhibitors; also recorded: did not show inhibitory activities | Ki (β-galactosidase [4]): 6.5 µM |
| C[C@@H]1NC[C@@H](O)[C@H](O)[C@@H]1O [1-deoxyfucojirimycin] |  |  | Ki (α-fucosidase): 0.005 µM |
| O[C@@H]1[C@@H](O)[C@@H](OCc2cccc(F)c2)CNC[C@@H]1OCc1cccc(F)c1 [Compound 60a, (3S,4R,5R,6S)-3,6-di-O-(3′-fluorobenzyl)-3,4,5,6-tetrahydroxyazepane] | not inhibitors | inhibit | IC50 against FIV protease (FIV protease): inceased compared to their inhibitory activity to the HIV protease; inhibition of FIV protease (in words) (FIV protease): active |
